This is an account of results in patent US20060235035A1, “Novel methoxybenzamibe compounds for use in mch receptor related disorders” (7TM Pharma A/S, priority 2002, published 2006).

pIC50: −log10 of the molar value.

For experiment [1], the target named is T1, human MCH-1 receptor (Homo sapiens, UniProt Q99705).
T1 construct: expressed in transfected cells; host or cells: transiently transfected COS-7 cells or stably transfected CHO cells (pcDNA3.1)
The experiment in a line: Radioligand binding assay ([125I]-MCH competition, whole cells). The note with it: competition with [125I]-MCH; COS-7 or CHO cells expressing human MCH-1 receptor. Here is the method: Transfections and Tissue Culture—The cDNA encoding the human MCH-1 receptor was cloned from a human brain cDNA library and cloned into the eukaryotic expression vector pcDNA3.1 (Invitrogen). Assays were performed on transiently transfected COS-7 cells or stably transfected CHO (Chinese Hamster Ovary) cells, expressing the human MCH-1 receptor in pcDNA3.1. Stable MCH-1 receptor transfectants of CHO cells were obtained using 5 μg plasmid cDNA and a standard calcium phosphate transfection method (Johansen et al., 1990; Gether et al., 1992) with subsequent selection in 1 mg/ml G418 (Life Technology). Clones were screened by a MCH receptor radioligand binding assay (as described below). Stably transfected CHO cells were maintained in RPMI 1640 culture medium (Invitrogen), supplemented with 10% fetal calf serum (Invitrogen), 100 U/ml penicillin, 100 μg/ml streptomycin (Life Technology), and 500 μg/ml G418 (Life Technology). COS-7 cells were grown in Dulbecco's modified Eagle's medium (DMEM) 1885 (Invitrogen) supplemented with 10% fetal calf serum, 100 U/ml penicillin, 100 μg/ml streptomycin, and were transiently transfected by a standard calcium phosphate transfection method (Johansen et al., 1990; Gether et al., 1992) two days before assay.
Radioligand Binding Assay—Transiently transfected COS-7 cells or stably transfected CHO cells, expressing human MCH-1 receptor were seeded in multi-well culture plates one day before the assay. The number of cells per well was determined by the apparent expression efficiency of the cell line aiming at 5-10% binding of the added radioligand. Cells were assayed by competition binding for 3 hours at room temperature using […] [^125I]-MCH (Amersham Pharmacia Biotech) plus variable amounts of unlabeled ligand in 0.5 ml of a 25 mM Hepes buffer, pH 7.4, supplemented with 10 mM MgCl2, 5 mM MnCl2, 10 mM NaCl, 0.1% (w/v) bovine serum albumin (BSA), 100 μg/ml bacitracin. The assay was performed in duplicate. Nonspecific binding was determined as the binding in the presence of 1 μM MCH (Bachem). Binding data were analyzed and IC50 values determined by non-linear regression using the Prism software (GraphPad software, San Diego). Values of the dissociation and inhibition constants (Kd and Ki) were estimated from competition binding using the equations Kd=IC50−L and Ki=IC50/(1+L/Kd), respectively, where L is the concentration of radioligand.

Experiment [2] deals with T1, human MCH-1 receptor. In words: Phosphatidylinositol assay (IP3). Type of experiment: cell-based. Conditions: phosphatidylinositol turnover stimulated by 10 nM MCH; COS-7 or CHO cells expressing human MCH-1 receptor. Here is the method:
Transfections and Tissue Culture—The cDNA encoding the human MCH-1 receptor was cloned from a human brain cDNA library and cloned into the eukaryotic expression vector pcDNA3.1 (Invitrogen). Assays were performed on transiently transfected COS-7 cells or stably transfected CHO (Chinese Hamster Ovary) cells, expressing the human MCH-1 receptor in pcDNA3.1. […] Clones were screened by a MCH receptor radioligand binding assay (as described below).
Phosphatidylinositol assay—To assay phosphatidylinositol turnover, transiently transfected COS-7 cells or stably transfected CHO cells, expressing human MCH-1 receptor (2×10^5 cells/well) were incubated for 24 h with 5 μCi of [^3H]-myo-inositol (Amersham Pharmacia Biotech) in 0.5 ml inositol-free culture medium. Cells were washed twice in PI-buffer: 20 mM HEPES, pH 7.4, supplemented with 140 mM NaCl, 5 mM KCl, 1 mM MgSO4, 1 mM CaCl2, 10 mM glucose, 0.02% (w/v) bovine serum; and were incubated in 0.5 ml PI-buffer supplemented with 10 mM LiCl at 37° C. for 45 min. Phosphatidylinositol turnover was stimulated by submaximal concentrations of MCH, i.e. 10 nM in the presence of increasing amounts of ligand. The ligand was added 5 min. before adding the agonist (MCH). Cells were extracted with 10 mM ice-cold Formic acid, and the generated [^3H]-inositol phosphates were purified on Bio-Rad AG 1-X8 anion-exchange resin. Determinations were made in duplicate. PI data were analyzed and IC50 values determined by non-linear regression using the Prism software (GraphPad software, San Diego).

For the next experiment, the target named is T2, hMCHreceptor (Homo sapiens, UniProt Q99705).
T2 construct: purchased Euroscreen ES-370-M; host or cells: CHO-K1 membranes
The experiment in a line: Scintillation Proximity Assay (SPA), [125I]-MCH binding to CHO-K1 membranes. Conditions: CHO-K1 membranes expressing hMCH receptor. How it is done:
Scintillation Proximity Assay (SPA)—Measurement of [^125I]-MCHbinding was performed in duplicates by incubating membranes and beads with tracer in the presences of various concentrations of test compounds (10^−8 to 10^−4 M) in DMSO (3 μl) at room temperature for two hours. Membranes and beads were pre-incubated for 20 min. The binding buffer contained 50 mM Tris (pH 7.4), 8 mM MgCl2, 12% glycerol, 0.1% (w/v) bovine serum albumin (BSA), and protease inhibitors (Complete protease inhibitor cocktail tablets, Roche). A final [^125I]-MCH(2000 Ci/mmol; Amersham Pharmacia Biotech) concentration of 75.000 cpm/well (33.8 nCi) was applied and PEI-treated WGA-coupled PVT SPA beads, type B from Amersham Pharmacia Biotech were used at a final concentration of 0.4 mg/well. Moreover, CHO-K1 membranes expressing the hMCHreceptor were purchased from Euroscreen (ES-370-M) and a final concentration of 2 μg/well were used. Binding data were analyzed and IC50 values determined by non-linear regression using the Prism software (GraphPad software, San Diego). Values of the inhibition constant (Ki) were estimated from competition binding using the equation Ki=IC50/([…]), where L and Kd are the concentration and affinity constant, respectively, of the radioligand.
On the technique in general: In a scintillation proximity assay essentially only radioactivity close to the scintillant gives light.

T1 sequence (Q99705 whole entry): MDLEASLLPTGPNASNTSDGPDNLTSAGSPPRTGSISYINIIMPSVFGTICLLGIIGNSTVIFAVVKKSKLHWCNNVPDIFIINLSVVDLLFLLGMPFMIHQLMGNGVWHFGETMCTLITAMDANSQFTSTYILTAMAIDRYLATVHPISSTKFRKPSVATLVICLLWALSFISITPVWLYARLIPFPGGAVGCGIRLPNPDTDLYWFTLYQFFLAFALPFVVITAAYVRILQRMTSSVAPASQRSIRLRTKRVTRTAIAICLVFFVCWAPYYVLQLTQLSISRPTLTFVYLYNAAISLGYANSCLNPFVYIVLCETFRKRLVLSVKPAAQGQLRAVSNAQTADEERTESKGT
T2 sequence (Q99705 whole entry): as above

Usually pIC50 stands for −log10 of the IC50, conventionally taken in molar units. Regarding `COc1cc(NC(=O)c2ccc(-c3ccccc3)cc2)ccc1C(=O)NCCN(C)C` [Ex 2, Biphenyl-4-carboxylic acid[4-(2-dimethylamino-ethylcarbamoyl)-3-methoxy-phenyl]-amide], on human MCH-1 receptor [1], the pIC50 is 5.83. `COc1cc(NC(=O)Nc2ccc(Oc3ccccc3)cc2)ccc1C(=O)NCCN(C)C` [Ex 8, N-(2-Dimethylamino-ethyl)-2-methoxy-4-[3-(4-phenoxy-phenyl)-ureido]-benzamide]: the values for the negative-log IC50 (pIC50) at human MCH-1 receptor [1] and against human MCH-1 receptor [2] were 6.42 and 5.64, respectively. The corresponding values for `COc1cc(NC(=O)Nc2ccc(Oc3ccccc3)cc2)ccc1C(=O)NC1CCN(Cc2ccccc2)CC1` [Ex 16, N-(1-Benzyl-piperidin-4-yl)-2-methoxy-4-[3-(4-phenoxy-phenyl)-ureido]-benzamide] are 6.66 and 5.74. The like results for `COc1cc(NC(=O)Nc2ccc(Oc3ccccc3)cc2)ccc1C(=O)NCCCN1CCOCC1` [Ex 23, 2-Methoxy-N-(3-morpholin-4-yl-propyl)-4-[3-(4-phenoxy-phenyl)-ureido]-benzamide] were, in that order, 6.68 and 6.11. `CCN(CC)CCNC(=O)c1ccc(N(C)C(=O)Nc2ccc(Oc3ccccc3)cc2)cc1OC` [Ex 33, N-(2-Diethylamino-ethyl)-2-methoxy-4-[1-methyl-3-(4-phenoxy-phenyl)-ureido]-benzamide]: the results for the negative logarithm of the IC50 (pIC50) on human MCH-1 receptor [1] and at human MCH-1 receptor [2] were 7.32 and 6.54, respectively.

With `CCN(CC)CCNC(=O)c1ccc(NC(=O)Nc2ccc(OC(F)(F)F)cc2)cc1` [Ex 47, N-(2-Diethylamino-ethyl)-4-[3-(4-trifluoromethoxy-phenyl)-ureido]-benzamide], the pIC50 on human MCH-1 receptor [1] is 7.15; on human MCH-1 receptor [2] it was 6.54. The like results for `CCN(CC)CCNC(=O)c1ccc(NC(=O)Nc2ccc(OC(F)(F)F)cc2)cc1OC` [Ex 48, N-(2-Diethylamino-ethyl)-2-methoxy-4-[3-(4-trifluoromethoxy-phenyl)-ureido]-benzamide] were, in that order, 7.02 and 6.72.

On to `COc1cc(NC(=O)Nc2ccc(C(F)(F)F)cc2)ccc1C(=O)NCCN1CCOCC1` [Ex 67, 2-Methoxy-N-(2-morpholin-4-yl-ethyl)-4-[3-(4-trifluoromethyl-phenyl)-ureido]-benzamide], for which the pIC50 was 7.57 at hMCHreceptor and 6.66 at human MCH-1 receptor [2]. As to `COc1cc(NC(=O)Nc2cccc(Nc3ccccc3)c2)ccc1C(=O)NCCCN1CCCCC1` [Ex 89, 2-Methoxy-4-[3-(3-phenylamino-phenyl)-ureido]-N-(3-piperidin-1-yl-propyl)-benzamide], the negative logarithm of the IC50 (pIC50) is 7.92 on human MCH-1 receptor [1] and 7.66 against human MCH-1 receptor [2]. The like results for `COc1cc(NC(=O)Nc2ccc(Oc3ccccc3)cc2)ccc1C(=O)NCCCN1CCCCC1` [Ex 95, 2-Methoxy-4-[3-(4-phenoxy-phenyl)-ureido]-N-(3-piperidin-1-yl-propyl)-benzamide] were, in that order, 7.36 and 6.62.

Consider `COc1cc(NC(=O)Nc2cccc(Oc3ccccc3)c2)ccc1C(=O)NCCCN1CCOCC1` [Ex 121, 2-Methoxy-N-(3-morpholin-4-yl-propyl)-4-[3-(3-phenoxy-phenyl)-ureido]-benzamide], for which, on human MCH-1 receptor [1], the pIC50 is 7.13. Consider `CCCCN(CCCC)CCCNC(=O)c1ccc(N(C)C(=O)Nc2ccc(Oc3ccccc3)cc2)cc1OC` [Ex 134, N-(3-Dibutylamino-propyl)-2-methoxy-4-[1-methyl-3-(4-phenoxy-phenyl)-ureido]-benzamide], for which the pIC50 is 7.16 at human MCH-1 receptor [1] and 6.17 at human MCH-1 receptor [2]. The corresponding values for `COc1cc(NC(=O)Nc2ccc(Oc3ccc(F)cc3)cc2)ccc1C(=O)NCCCN1CCOCC1` [Ex 135, 4-{3-[4-(4-Fluoro-phenoxy)-phenyl]-ureido}-2-methoxy-N-(3-morpholin-4-yl-propyl)-benzamide] are 6.35 and 5.80. As to `COc1cc(NC(=O)Nc2ccc(Oc3ccccn3)cc2)ccc1C(=O)NCCCN1CCOCC1` [Ex 136, 2-Methoxy-N-(3-morpholin-4-yl-propyl)-4-(3-[4-(pyridin-2-yloxy)-phenyl]-ureido)-benzamide], the pIC50 on human MCH-1 receptor [1] is 5.35.

As for `COc1cc(NC(=O)Nc2ccc3c(c2)CCC3)ccc1C(=O)NC1CCN(Cc2ccccc2)CC1` [Ex 137, N-(1-Benzyl-piperidin-4-yl)-4-(3-indan-5-yl-ureido)-2-methoxy-benzamide], the negative-log IC50 (pIC50) on human MCH-1 receptor [1] is 6.52. On the same count and under the same terms, to `COc1cc(NC(=O)Nc2ccc(Nc3ccc(C(F)(F)F)cc3)cc2)ccc1C(=O)NCCCN1CCOCC1` [Ex 139, 2-Methoxy-N-(3-morpholin-4-yl-propyl)-4-{3-[4-(4-trifluoromethyl-phenylamino)-phenyl]-ureido}-benzamide] belongs 5.85; to `COc1cc(NC(=O)Nc2ccc(Oc3ccccc3)cc2)c(F)cc1C(=O)NCCCN1CCCCC1` [Ex 186, 5-Fluoro-2-methoxy-4-[3-(4-phenoxy-phenyl)-ureido]-N-(3-piperidin-1-yl-propyl)-benzamide], 6.00.
